Like-named read-outs stand apart in the source and are kept apart here.
What was measured:
[1] = test system: LXFS 615 SCLC patient-derived xenograft; details: 5 mg base/kg; plasma after final dose
[2] = test system: LU1480 SCLC patient-derived xenograft; test: Efficacy in LU1480 HuPrime SCLC PDX model; format: in vivo, mice
[3] = Hemodynamic and ECG parameters in anesthetized guinea pigs (IV infusion); details: for mean plasma concentration at end of infusion: 10 minutes
Description: The effects of Compound Aon hemodynamic and ECG parameters were examined in anesthetized, male Dunkin Hartley guinea pigs. […] An escalating dose design was utilized in which doses were administered sequentially at 20-minute intervals. Animals were monitored throughout the experiment.

[4] = test system: Salmonella typhimurium TA98 and TA100 strains; test: Bacterial reverse mutation assay; format: cell-based; details: up to 500 μg/mL; in presence and absence of S9
NCI-H1417 SCLC xenograft = details: for Median Tumor Volumes Diff.: Day 0 vs Day 65
LNCaP cells = test: LNCaP cell proliferation with DHT and irradiation; format: cell-based, human; details: 100 nM Compound A + 10 nM DHT + 2Gy irradiation vs DHT with irradiation or DHT with Compound A; 220 hours
Description: LNCaP cells are androgen-sensitive human prostate adenocarcinoma cells. […] The proliferation of the LNCap cells was monitored for 220 hours.

[5] = Pharmacokinetics after single IV and oral dose, Sprague Dawley rats; format: in vivo; details: Rat, female
Description: AUClast=area under the plasma concentration-time curve from time zero to time of last measurable concentration; Cmax=maximum plasma concentration; F=oral bioavailability; hr=hour, PK=pharmacokinetic; SD=standard deviation; t1/2 z=apparent half-life of the terminal phase of the concentration-time curve; tmax=time of Cmax. In mouse, PK parameters were determined using composite plasma samples obtained from n=3animals/time point. In other species, PK parameters are from n=3 animals and values shown are mean and SD (in parentheses).

[6] = 4-week toxicity study (no recovery period) in dogs (QW/Q2W); format: in vivo; details: for AUC0-96 / Cmax: Dogs
From the text: All animals survived to the terminal sacrifice.

NCI-H69 SCLC cell line = test: Antiproliferative activity, NCI-H69; format: cell-based, human; details: 3D assay; Calcein AM
[7] = Exploratory toxicity study in dogs; format: in vivo; details: 0.5 mg/kg/dose QOD
[8] = test system: ST18 and FREM2 expression in MKL-1 tumors; test: In vivo xenograft dose-response of PD biomarker gene expression, MKL-1; design: species or system mice; details: 1, 2.5, or 5 mg/kg PO BID ×4.5; tumors 4 h after last dose
From the text: Female NSG mice bearing palpable hMCC MKL-1 and MS-1 tumors were randomized into four groups of three mice each. […] The fourth group was orally administered vehicle as a control on the BID schedule. Four hours after the last dosing, tumors were collected into RNA later and stored frozen.
Total RNA was eluted in RNase-free water and analyzed by qRT-PCR.

[9] = test system: LU2527 lung NEC patient-derived xenograft; test: Efficacy in LU2527 lung neuroendocrine carcinoma PDX model; details: 5 mg base/kg PO QD; Day 46
[10] = test system: H3K4me2 at ST18 and FREM2 gene loci in MKL-1 cells; test: ChIP-seq LSD1 occupancy and H3K4me2 status, MKL-1; format: cell-based, human; details: 100 nM, 3 days
[11] = 4-week toxicity study with 4-week recovery in mice; format: in vivo; details: for AUC0-24 / Cmax: Mice
[12] = after escalating IV doses to 20 mg base/kg
[13] = Day 1, 0.125 mg base/kg/dose oral QW, Sexes Combined
[14] = Day 1, 0.25 mg base/kg/dose oral QW, M
[15] = Day 1, 0.5 mg base/kg/dose oral Q2W, M
[16] = Day 15, 0.125 mg base/kg/dose oral QW, F
[17] = Day 15, 0.125 mg base/kg/dose oral QW, M
[18] = Day 15, 0.125 mg base/kg/dose oral QW, Sexes Combined
[19] = 5 mg base/kg/dose QD×5/week, females
[20] = 5 mg base/kg/dose QD×5/week, males
[21] = 25 mg base/kg/dose QOD×3/week, females
[22] = 45 mg base/kg/dose QD×5/week, females
[23] = 45 mg base/kg/dose QD×5/week, males
[24] = Day 1, 15 mg base/kg/dose oral, 5 days on/2 days off, F
[25] = Day 26, 5 mg base/kg/dose oral, 5 days on/2 days off, F
[26] = Day 26, 5 mg base/kg/dose oral, 5 days on/2 days off, M
[27] = Day 26, 15 mg base/kg/dose oral, 5 days on/2 days off, M
[28] = Day 26, 25 mg base/kg/dose oral, QOD × 3/week, F
[29] = Day 26, 25 mg base/kg/dose oral, QOD × 3/week, M
[30] = Day 26, 45 mg base/kg/dose oral, 5 days on/2 days off, F
[31] = Day 26, 45 mg base/kg/dose oral, 5 days on/2 days off, M

COc1ccc(-c2c(-c3ccc(C#N)c(F)c3)nc(N3CCC(N)CC3)n(C)c2=O)cc1F [Compound A]
AUC0-24 [1]: 1,617 ng·hr/mL
% TGI ([2]; 10 mg base/kg PO QD × 21): 72%
TGI ([2]; 10 mg base/kg orally for 15 days (second LU1480 experiment)): 46%
mean plasma concentration at end of infusion ([3]; 15 mg base/kg IV): 4269 ng/mL
mean plasma concentration at end of infusion ([3]; 20 mg base/kg IV): 6707 ng/mL
maximum decrease in HR vs vehicle ([3]; 20 mg base/kg IV, 9 minutes into 10-minute infusion): 19%
decrease in heart rate at end of monitoring period [3, 12]: 18%
increase of QTcB interval at end of monitoring period [3, 12]: 10%
mutagenicity [4]: negative for mutagenicity
mean body weight gain by end of study (NCI-H1417 SCLC xenograft; 2.5 mg base/kg): 1%
Median Tumor Volumes Diff. (NCI-H1417 SCLC xenograft; 2.5 mg base/kg PO QD × 65): 69.9 mm^3
mean body weight gain by end of study (NCI-H1417 SCLC xenograft; 5 mg base/kg): 7.5%
Median Tumor Volumes Diff. (NCI-H1417 SCLC xenograft; 5 mg base/kg PO QD × 65): 92.3 mm^3
LNCaP cell proliferation (LNCaP cells): significantly inhibits LNCaP cell proliferation
AUC∞ ([5]; single IV 5 mg base/kg): 733 ng·h/mL
CL ([5]; single IV 5 mg base/kg): 115 mL/min/kg
Vss ([5]; single IV 5 mg base/kg): 0.2625 L/kg
t1/2,z ([5]; single IV 5 mg base/kg): 3.6 h
% F ([5]; single oral 5 mg base/kg): 33%
AUClast ([5]; single oral 5 mg base/kg): 222 ng·h/mL
Cmax ([5]; single oral 5 mg base/kg): 47 ng/mL
t1/2,z ([5]; single oral 5 mg base/kg): 3.0 h
tmax ([5]; single oral 5 mg base/kg): 2.0 h
% F ([5]; single oral 15 mg base/kg): 28%
AUClast ([5]; single oral 15 mg base/kg): 570 ng·h/mL
Cmax ([5]; single oral 15 mg base/kg): 123 ng/mL
t1/2,z ([5]; single oral 15 mg base/kg): 2.9 h
tmax ([5]; single oral 15 mg base/kg): 2.0 h
% F ([5]; single oral 50 mg base/kg): 74%
AUClast ([5]; single oral 50 mg base/kg): 4652 ng·h/mL
Cmax ([5]; single oral 50 mg base/kg): 621 ng/mL
t1/2,z ([5]; single oral 50 mg base/kg): 3.0 h
tmax ([5]; single oral 50 mg base/kg): 6.0 h
combined Day 15 mean AUC ([6]; 0.125 mg base/kg/dose QW): 127 ng·h/mL
combined Day 15 mean Cmax ([6]; 0.125 mg base/kg/dose QW): 5.26 ng/mL
combined Day 15 mean AUC ([6]; 0.25 mg base/kg/dose QW): 287 ng·h/mL
combined Day 15 mean Cmax ([6]; 0.25 mg base/kg/dose QW): 11.0 ng/mL
combined Day 15 mean AUC ([6]; 0.5 mg base/kg/dose Q2W): 636 ng·h/mL
combined Day 15 mean Cmax ([6]; 0.5 mg base/kg/dose Q2W): 22.0 ng/mL
AUC0-96 ([6]; Day 1, 0.125 mg base/kg/dose oral QW, F): 127 ng·h/mL
AUC0-96 [6, 13]: 120 ng·h/mL
Cmax [6, 13]: 5.79 ng/mL
AUC0-96 [6, 14]: 335 ng·h/mL
Cmax [6, 14]: 11.9 ng/mL
Cmax ([6]; Day 1, 0.25 mg base/kg/dose oral QW, Sexes Combined): 12.0 ng/mL
Cmax ([6]; Day 1, 0.5 mg base/kg/dose oral Q2W, F): 26.6 ng/mL
AUC0-96 [6, 15]: 762 ng·h/mL
Cmax [6, 15]: 24.0 ng/mL
Cmax ([6]; Day 1, 0.5 mg base/kg/dose oral Q2W, Sexes Combined): 25.3 ng/mL
AUC0-96 [6, 16]: 141 ng·h/mL
Cmax [6, 16]: 5.54 ng/mL
AUC0-96 [6, 17]: 107 ng·h/mL
Cmax [6, 17]: 4.89 ng/mL
AUC0-96 [6, 18]: 127 ng·h/mL
Cmax [6, 18]: 5.26 ng/mL
Cmax ([6]; Day 15, 0.25 mg base/kg/dose oral QW, Sexes Combined): 11.0 ng/mL
Cmax ([6]; Day 15, 0.5 mg base/kg/dose oral Q2W, Sexes Combined): 22.0 ng/mL
treatment-related adverse finding ([6]; single female, 0.25 mg base/kg/dose QW): Moderate acute inflammation in the ileum and marked acute inflammation in the cecum
IC50 (NCI-H69 SCLC cell line): 7 µM
primary findings [7]: Marked thrombocytopenia and acute hemorrhage in mesenteric and mandibular lymph nodes
ST18 and FREM2 change in gene expression in vivo [8]: ≥ 2 fold
% TGI [9]: 84%
H3K4me2 at the LSD1 binding site of FREM2 gene [10]: increased H3K4me2
H3K4me2 at the LSD1 binding site of ST18 gene [10]: increased H3K4me2
mean steady state AUC0-24 [11, 19]: 2,410 ng·hr/mL
mean steady state Cmax [11, 19]: 276 ng/mL
mean steady state AUC0-24 [11, 20]: 2,010 ng·hr/mL
mean steady state Cmax [11, 20]: 276 ng/mL
mean steady state AUC0-24 [11, 21]: 17,500 ng·hr/mL
mean steady state Cmax [11, 21]: 1,740 ng/mL
mean steady state Cmax ([11]; 25 mg base/kg/dose QOD×3/week, males): 1,450 ng/mL
animals sacrificed in moribund condition ([11]; 45 mg base/kg/dose QD×5/week, 4 males and 1 female, TK subgroup): Five
mean steady state AUC0-24 [11, 22]: 26,500 ng·hr/mL
mean steady state Cmax [11, 22]: 2,130 ng/mL
mean steady state AUC0-24 [11, 23]: 29,000 ng·hr/mL
mean steady state Cmax [11, 23]: 2,620 ng/mL
AUC0-24 ([11]; Day 1, 5 mg base/kg/dose oral, 5 days on/2 days off, F): 1500 ng·h/mL
Cmax ([11]; Day 1, 5 mg base/kg/dose oral, 5 days on/2 days off, M): 230 ng/mL
AUC0-24 [11, 24]: 9680 ng·h/mL
Cmax [11, 24]: 850 ng/mL
AUC0-24 ([11]; Day 1, 15 mg base/kg/dose oral, 5 days on/2 days off, M): 13000 ng·h/mL
AUC0-24 [11, 25]: 2410 ng·h/mL
Cmax [11, 25]: 276 ng/mL
AUC0-24 [11, 26]: 2010 ng·h/mL
Cmax [11, 26]: 275 ng/mL
AUC0-24 [11, 27]: 7960 ng·h/mL
Cmax [11, 27]: 628 ng/mL
AUC0-24 [11, 28]: 17500 ng·h/mL
Cmax [11, 28]: 1740 ng/mL
AUC0-24 [11, 29]: 17800 ng·h/mL
Cmax [11, 29]: 1450 ng/mL
AUC0-24 [11, 30]: 26500 ng·h/mL
Cmax [11, 30]: 2130 ng/mL
AUC0-24 [11, 31]: 29000 ng·h/mL
Cmax [11, 31]: 2620 ng/mL
STD10 ([11]; QD ×5/week schedule): ≥ 45 mg base/kg/dose

Source: patent US10960005B2, “Treatment of relapsed and/or refractory solid tumors and non-hodgkin's lymphomas” (CELGENE QUANTICEL RESEARCH, INC., priority 2016, dated 2021)
